Assay [1] concerns coronary artery. The assay is described as follows: Test for coronary dilating action (intracoronary administration, coronary blood flow in anaesthetized dogs). Format: in vivo. Conditions: 10 μg./dog directly into the coronary artery, potency of adenosine taken as unity. Here is the method: Each of dogs weighing 7 to 17 kilograms was anaesthetized with pentobarbital sodium salt (30 mg./kg., intravenously) and under supportive respiration, a left thoractomy was performed at the fifth interspace.
The heart of each animal was exposed and perfused with the blood guided from the animal's own left carotid artery to the left coronary artery circumflex through a polyethylene catheter. The coronary blood flow was measured with an electromagnetic flowmeter interposed in the external phase of the circuitry.
Each of the test compounds was administered directly into the coronary artery through the polyethylene catheter at a dose of 10 μg./dog. The potency of each compound was expressed with the potency of adenosine being taken as unity.

Assay [2] concerns rat platelets. The assay is described as follows: Test for the action to inhibit the aggregation of rat platelets caused by adenosine-5'-diphosphate (method of Born and Cross). Format: cell-based. Conditions: read-out: Inhibitory action (%). The source says:
Test for the action to inhibit the aggregation of rat platelets caused by adenosine-5'-diphosphate

The mark [3] stands for this setting: rat platelet-rich plasma, ADP-induced aggregation, concentration 15 μg/ml.
The mark [4] stands for this setting: rat platelet-rich plasma, ADP-induced aggregation, concentration 74 μg/ml.
Where [5] appears, read: rat platelet-rich plasma, ADP-induced aggregation, concentration 370 μg/ml.

Molecules are shown by their SMILES. Read-outs that look alike come from different tables or passages of the source.

For `COc1ccc(Nc2nc(N)c3ncn([C@@H]4O[C@H](CO)[C@@H](O)[C@H]4O)c3n2)cc1` [N^2-(p-methoxyphenyl)-2,6-diaminonebularine], the Maximum coronary flow in assay [1] is on record as 2.37.

With `Nc1nc(NC2CCCCC2)nc2c1ncn2[C@@H]1O[C@H](CO)[C@@H](O)[C@H]1O` [N^2 -Cyclohexyl-2,6-diaminonebularine, N^2-cyclohexyl-2,6-diaminonebularine], the Maximum coronary flow in assay [1] was determined as 2.20. Further, the inhibition at 15 µg/mL in assay [2] (setting [3]) is -32%. Moreover, the inhibition at 74 µg/mL in assay [2] (setting [4]) was -60%. Moreover, in assay [2] (setting [5]), the inhibition at 370 µg/mL is -95%.

For `Nc1nc(Nc2ccccc2)nc2c1ncn2[C@@H]1O[C@H](CO)[C@@H](O)[C@H]1O` [N^2 -Phenyl-2,6-diaminonebularine, N^2-phenyl-2,6-diaminonebularine], in assay [1], the Maximum coronary flow stood at 6.75. In assay [2] (setting [3]), the inhibition at 15 µg/mL was -38%. Besides, the inhibition at 74 µg/mL in assay [2] (setting [4]) was -52%. The inhibition at 370 µg/mL in assay [2] (setting [5]) was -85%.

In assay [1], `CCNc1nc(N)c2ncn([C@@H]3O[C@H](CO)[C@@H](O)[C@H]3O)c2n1` [N^2 -Ethyl-2,6-diaminonebularine, N^2-ethyl-2,6-diaminonebularine] came in with a Maximum coronary flow of 0.91. Further, the inhibition at 15 µg/mL in assay [2] (setting [3]) is -11%. The inhibition at 74 µg/mL in assay [2] (setting [4]) is -21%. Further, the inhibition at 370 µg/mL in assay [2] (setting [5]) is -40%.

In assay [1], `Nc1ncnc2c1ncn2[C@@H]1O[C@H](CO)[C@@H](O)[C@H]1O` [Adenosine] showed a Maximum coronary flow of 1.00. For the same molecule, in assay [2] (Rattus norvegicus, Platelet), the inhibition at 15 µg/mL came to 0%, the inhibition at 74 µg/mL amounted to 0% and the inhibition at 370 µg/mL was determined as 0%.

On to `Nc1nc(N)c2ncn([C@@H]3O[C@H](CO)[C@@H](O)[C@H]3O)c2n1` [2,6-Diaminonebularine, 2,6-diaminonebularine], for which the Maximum coronary flow in assay [1] is 0.50. Besides, the inhibition at 15 µg/mL in assay [2] (setting [3]) stood at 0%. Further, in assay [2] (setting [4]), the inhibition at 74 µg/mL amounted to 0%. Besides, in assay [2] (setting [5]), the inhibition at 370 µg/mL turned out to be 0%.
